In patent US20020197294A1, “PYRONE COMPOUNDS AND THERE USE” (SUMITOMO CHEMICAL COMPANY, LIMITED, priority 2001, published 2002):

What was measured:
Type in all cases: in vivo
[1] = test system: German cockroaches (Blattella germanica); assay: German cockroach filter paper test (Test Example 1); conditions: 144 h, 0.7 ml of 500 ppm aqueous dilution on filter paper, male German cockroaches, after six days
Protocol: (§1) Filter paper of 5.5 cm in diameter was laid in the bottom of a polyethylene cup (diameter: 5.5 cm). After 0.7 ml of a 500 ppm aqueous dilution obtained by diluting the formulation of the test compound prepared according to the formulation example 1 was dropped on the filter paper, 30 mg of sucrose was scattered. Two male German cockroaches (Blattella germanica) were left in the polyethylene cup with a cover. After six days, the mortality of the German cockroaches was examined.

[2] = test system: houseflies (Musca domestics); assay: Housefly filter paper test (Test Example 2); conditions: 0.7 ml of 500 ppm aqueous dilution on filter paper, female houseflies, after one day
Protocol: as §1, with “Ten female houseflies (Musca domestics)” for “Two male German cockroaches (Blattella germanica)”, “the” for “the polyethylene”, “one day,” for “six days,”, “houseflies” for “German cockroaches”

[3] = test system: houseflies (Musca domestics); assay: Housefly topical application test (Test Example 3); conditions: 0.5 μl of 30 g/l acetone solution at back thoracic region (about 15 μg/one housefly), female houseflies, after 24 hours, three replicate
Protocol: A solution (30 g/l) for each of the present compound (A) and the reference compound was prepared by diluting with acetone.
The acetone solution (0.5 μl) was applied to 10 female houseflies (Musca domestics) at the back thoracic region (active ingredient: about 15 μg/one housefly) by a microsyringe and the houseflies were left with water and feed in a plastic cup. After 24 hours, the mortality (%) was examined (three replicate).

| SMILES | mortality at 500 ppm [1] | mortality of the houseflies [2] | Mortality (%) [3] |
| --- | --- | --- | --- |
| Cc1cc(O)c(C(=O)CCC(F)(F)F)c(=O)o1 [the present compound (A), 4-hydroxy-6-methyl-3-(4,4,4-trifluorobutyryl)-2-pyrone] | 100% | 100% | 100% |
| CCCC(=O)c1c(O)cc(C)oc1=O [The Reference compound, reference compound] | – | – | 3.3% |
| Cc1cc(O)c(C(=O)CC(C)C(F)(F)F)c(=O)o1 (centres unmarked) [the present compound (B), 4-hydroxy-6-methyl-3-(3-trifluoromethylbutyryl)-2-pyrone] | 100% | 100% | – |
| Cc1cc(O)c(C(=O)CC(C(F)(F)F)C(F)(F)F)c(=O)o1 [the present compound (C), 4-hydroxy-6-methyl-3-(3-trifluoromethyl-4,4,4-trifluorobutyryl) -2-pyrone] | 100% | 100% | – |
